In patent publication US20190119284A1, “ErbB Inhibitors and Uses Thereof” (The Regents of the University of California, priority 2016, published 2019) one finds inhibition data, which are given here for 2 molecules.

Usually inhibition stands for the change of the read-out against control, counted positive when it falls.

Format in all cases: biochemical
What all share (conditions): for inhibition at 1 µM: compound at 1 μM

One assay deals with SYK (Homo sapiens, UniProt P43405). Description: Nanosyn in vitro kinase profiling: SYK. Here is the method:
(§1) This was confirmed by in vitro profiling against a panel of kinases, with compound 2 only showing potent inhibition of EGFR and Ab1 (Table 2).
(§2) In vitro Kinome Screen. In vitro profiling of compound 2 at 100 nM was conducted by Nanosyn.

Another assay addresses T1, NEK2 (Homo sapiens, UniProt P51955).
T1 sequence (P51955 1-445): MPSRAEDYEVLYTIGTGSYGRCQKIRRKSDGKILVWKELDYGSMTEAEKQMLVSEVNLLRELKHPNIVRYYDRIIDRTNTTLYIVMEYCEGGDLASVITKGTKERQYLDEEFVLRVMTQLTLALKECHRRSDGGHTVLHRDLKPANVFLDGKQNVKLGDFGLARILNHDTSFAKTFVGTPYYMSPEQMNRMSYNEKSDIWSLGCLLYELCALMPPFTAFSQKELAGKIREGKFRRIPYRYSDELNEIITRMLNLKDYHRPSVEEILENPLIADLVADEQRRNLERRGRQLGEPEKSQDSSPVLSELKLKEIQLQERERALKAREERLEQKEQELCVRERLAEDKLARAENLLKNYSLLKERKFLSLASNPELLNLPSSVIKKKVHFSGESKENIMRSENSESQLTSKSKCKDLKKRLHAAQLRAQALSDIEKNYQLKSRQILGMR
The assay can be described thus: Nanosyn in vitro kinase profiling: NEK2. Here is the method: as §1, §2

For a further assay, the target named is PIM-1-KINASE (Homo sapiens, UniProt P11309). The assay can be described thus: Nanosyn in vitro kinase profiling: PIM-1-KINASE. The procedure:
as §1, §2

The next assay deals with T2, SGK1 (Homo sapiens, UniProt O00141).
T2 sequence (O00141 1-431): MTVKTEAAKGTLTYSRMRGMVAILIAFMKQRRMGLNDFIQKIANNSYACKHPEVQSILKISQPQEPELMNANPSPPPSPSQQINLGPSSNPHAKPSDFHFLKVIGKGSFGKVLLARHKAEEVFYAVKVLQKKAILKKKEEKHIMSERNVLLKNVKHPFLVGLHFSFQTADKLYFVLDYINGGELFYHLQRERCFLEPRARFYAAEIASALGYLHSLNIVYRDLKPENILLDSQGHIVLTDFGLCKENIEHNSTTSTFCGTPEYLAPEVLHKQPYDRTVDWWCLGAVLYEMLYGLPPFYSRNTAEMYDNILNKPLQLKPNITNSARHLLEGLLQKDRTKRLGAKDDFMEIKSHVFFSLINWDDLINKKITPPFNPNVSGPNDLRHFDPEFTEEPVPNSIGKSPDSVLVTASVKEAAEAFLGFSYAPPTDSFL
Description: Nanosyn in vitro kinase profiling: SGK1. The procedure: as §1, §2

The next assay addresses PYK2 (Homo sapiens, UniProt Q14289). Description: Nanosyn in vitro kinase profiling: PYK2. The procedure: as §1, §2
The target in a further assay is T3, IRAK4 (Homo sapiens, UniProt Q9NWZ3).
T3 sequence (Q9NWZ3 1-460): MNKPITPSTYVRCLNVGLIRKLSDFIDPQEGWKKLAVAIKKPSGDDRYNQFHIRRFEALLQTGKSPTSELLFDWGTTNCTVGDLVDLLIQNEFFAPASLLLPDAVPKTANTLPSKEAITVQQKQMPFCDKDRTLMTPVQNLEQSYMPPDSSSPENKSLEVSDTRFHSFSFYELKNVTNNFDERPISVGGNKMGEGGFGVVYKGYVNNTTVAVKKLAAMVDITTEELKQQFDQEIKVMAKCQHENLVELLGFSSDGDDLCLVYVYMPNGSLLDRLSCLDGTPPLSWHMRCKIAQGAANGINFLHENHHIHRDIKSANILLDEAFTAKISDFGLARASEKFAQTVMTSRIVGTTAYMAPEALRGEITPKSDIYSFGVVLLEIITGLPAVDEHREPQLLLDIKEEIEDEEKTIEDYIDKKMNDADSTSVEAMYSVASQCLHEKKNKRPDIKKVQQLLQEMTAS
The assay can be described thus: Nanosyn in vitro kinase profiling: IRAK4. Here is the method:
as §1, §2

For a further assay, the target named is PDGFR-ALPHA (Homo sapiens, UniProt P16234). The assay can be described thus: Nanosyn in vitro kinase profiling: PDGFR-ALPHA. The procedure: as §1, §2
Sequence of PDGFR-ALPHA (P16234 24-1089, species assumed): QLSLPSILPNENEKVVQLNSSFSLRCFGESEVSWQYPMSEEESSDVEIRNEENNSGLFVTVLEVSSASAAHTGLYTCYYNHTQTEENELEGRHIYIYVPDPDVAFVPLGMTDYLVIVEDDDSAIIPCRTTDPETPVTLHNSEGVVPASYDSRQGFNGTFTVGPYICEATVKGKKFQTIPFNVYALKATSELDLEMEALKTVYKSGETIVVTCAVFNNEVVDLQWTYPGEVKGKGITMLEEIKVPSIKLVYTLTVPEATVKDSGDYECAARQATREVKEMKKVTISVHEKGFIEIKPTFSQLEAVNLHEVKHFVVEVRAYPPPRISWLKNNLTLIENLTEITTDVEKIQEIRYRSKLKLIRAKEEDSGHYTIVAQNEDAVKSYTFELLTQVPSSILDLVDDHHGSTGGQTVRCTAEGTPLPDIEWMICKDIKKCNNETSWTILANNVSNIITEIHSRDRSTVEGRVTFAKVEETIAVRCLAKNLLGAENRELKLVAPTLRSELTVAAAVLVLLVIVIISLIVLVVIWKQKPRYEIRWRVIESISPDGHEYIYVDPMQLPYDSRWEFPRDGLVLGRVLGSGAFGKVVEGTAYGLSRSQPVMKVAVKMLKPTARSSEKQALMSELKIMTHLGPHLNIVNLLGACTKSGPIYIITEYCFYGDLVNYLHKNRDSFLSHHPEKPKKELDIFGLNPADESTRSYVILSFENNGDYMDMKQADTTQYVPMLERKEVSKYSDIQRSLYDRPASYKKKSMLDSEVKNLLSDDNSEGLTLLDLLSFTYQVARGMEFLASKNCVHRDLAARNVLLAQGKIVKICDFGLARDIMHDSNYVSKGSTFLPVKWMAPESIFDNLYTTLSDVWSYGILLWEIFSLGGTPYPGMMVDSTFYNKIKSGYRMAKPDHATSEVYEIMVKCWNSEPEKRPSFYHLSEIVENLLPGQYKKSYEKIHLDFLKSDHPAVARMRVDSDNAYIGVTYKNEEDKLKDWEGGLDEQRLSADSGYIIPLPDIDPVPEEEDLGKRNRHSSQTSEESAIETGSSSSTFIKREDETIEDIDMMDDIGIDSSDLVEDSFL
A further assay deals with CDK2 (Homo sapiens, UniProt P24941). The assay can be described thus: Nanosyn in vitro kinase profiling: CDK2. Here is the method:
as §1, §2

A further assay deals with T4, PRKD2 (Homo sapiens, UniProt Q9BZL6).
T4 sequence (Q9BZL6 1-878): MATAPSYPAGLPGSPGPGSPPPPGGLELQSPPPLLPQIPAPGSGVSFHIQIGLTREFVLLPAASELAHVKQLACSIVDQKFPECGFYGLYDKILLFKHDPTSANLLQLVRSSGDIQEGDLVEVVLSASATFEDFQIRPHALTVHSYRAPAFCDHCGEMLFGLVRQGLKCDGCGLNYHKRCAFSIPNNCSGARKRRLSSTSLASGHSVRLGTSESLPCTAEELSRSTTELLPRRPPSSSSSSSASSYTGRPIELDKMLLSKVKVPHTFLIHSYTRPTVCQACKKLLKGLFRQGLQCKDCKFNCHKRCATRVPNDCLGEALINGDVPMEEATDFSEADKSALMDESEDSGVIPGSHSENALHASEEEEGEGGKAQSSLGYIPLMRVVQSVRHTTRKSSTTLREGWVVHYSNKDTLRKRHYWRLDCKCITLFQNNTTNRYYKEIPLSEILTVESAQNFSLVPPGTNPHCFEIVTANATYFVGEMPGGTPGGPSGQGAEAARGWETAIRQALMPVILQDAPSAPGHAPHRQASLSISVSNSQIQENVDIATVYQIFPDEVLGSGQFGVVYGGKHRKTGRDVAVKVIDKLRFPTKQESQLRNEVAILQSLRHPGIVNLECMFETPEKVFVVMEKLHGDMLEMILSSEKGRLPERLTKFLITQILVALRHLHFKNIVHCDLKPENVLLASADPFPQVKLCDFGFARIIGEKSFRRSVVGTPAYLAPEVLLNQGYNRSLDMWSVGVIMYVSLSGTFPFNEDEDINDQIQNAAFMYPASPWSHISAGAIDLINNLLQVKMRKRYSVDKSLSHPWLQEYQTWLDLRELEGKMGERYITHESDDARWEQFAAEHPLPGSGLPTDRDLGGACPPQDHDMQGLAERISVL
Description: Nanosyn in vitro kinase profiling: PRKD2. The procedure:
as §1, §2

For a further assay, the target named is PAK2 (Homo sapiens, UniProt Q13177). The assay can be described thus: Nanosyn in vitro kinase profiling: PAK2. Here is the method: as §1, §2
Sequence of PAK2 (Q13177 whole entry, species assumed): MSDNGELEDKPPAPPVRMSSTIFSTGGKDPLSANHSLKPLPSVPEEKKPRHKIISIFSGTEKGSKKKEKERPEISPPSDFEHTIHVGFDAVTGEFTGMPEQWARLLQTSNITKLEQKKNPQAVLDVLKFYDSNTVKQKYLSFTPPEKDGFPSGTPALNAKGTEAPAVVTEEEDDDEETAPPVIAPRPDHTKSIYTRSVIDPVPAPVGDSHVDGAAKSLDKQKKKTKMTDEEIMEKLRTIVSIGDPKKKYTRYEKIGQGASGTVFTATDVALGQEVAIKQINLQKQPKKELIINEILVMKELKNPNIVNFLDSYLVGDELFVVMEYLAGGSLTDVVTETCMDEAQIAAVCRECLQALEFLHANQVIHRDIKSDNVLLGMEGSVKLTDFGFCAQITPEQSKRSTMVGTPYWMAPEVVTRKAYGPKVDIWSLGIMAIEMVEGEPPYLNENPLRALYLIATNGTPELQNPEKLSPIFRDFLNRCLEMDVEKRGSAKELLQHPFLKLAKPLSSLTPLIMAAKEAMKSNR

Sequence of PYK2 (Q14289 whole entry, species assumed): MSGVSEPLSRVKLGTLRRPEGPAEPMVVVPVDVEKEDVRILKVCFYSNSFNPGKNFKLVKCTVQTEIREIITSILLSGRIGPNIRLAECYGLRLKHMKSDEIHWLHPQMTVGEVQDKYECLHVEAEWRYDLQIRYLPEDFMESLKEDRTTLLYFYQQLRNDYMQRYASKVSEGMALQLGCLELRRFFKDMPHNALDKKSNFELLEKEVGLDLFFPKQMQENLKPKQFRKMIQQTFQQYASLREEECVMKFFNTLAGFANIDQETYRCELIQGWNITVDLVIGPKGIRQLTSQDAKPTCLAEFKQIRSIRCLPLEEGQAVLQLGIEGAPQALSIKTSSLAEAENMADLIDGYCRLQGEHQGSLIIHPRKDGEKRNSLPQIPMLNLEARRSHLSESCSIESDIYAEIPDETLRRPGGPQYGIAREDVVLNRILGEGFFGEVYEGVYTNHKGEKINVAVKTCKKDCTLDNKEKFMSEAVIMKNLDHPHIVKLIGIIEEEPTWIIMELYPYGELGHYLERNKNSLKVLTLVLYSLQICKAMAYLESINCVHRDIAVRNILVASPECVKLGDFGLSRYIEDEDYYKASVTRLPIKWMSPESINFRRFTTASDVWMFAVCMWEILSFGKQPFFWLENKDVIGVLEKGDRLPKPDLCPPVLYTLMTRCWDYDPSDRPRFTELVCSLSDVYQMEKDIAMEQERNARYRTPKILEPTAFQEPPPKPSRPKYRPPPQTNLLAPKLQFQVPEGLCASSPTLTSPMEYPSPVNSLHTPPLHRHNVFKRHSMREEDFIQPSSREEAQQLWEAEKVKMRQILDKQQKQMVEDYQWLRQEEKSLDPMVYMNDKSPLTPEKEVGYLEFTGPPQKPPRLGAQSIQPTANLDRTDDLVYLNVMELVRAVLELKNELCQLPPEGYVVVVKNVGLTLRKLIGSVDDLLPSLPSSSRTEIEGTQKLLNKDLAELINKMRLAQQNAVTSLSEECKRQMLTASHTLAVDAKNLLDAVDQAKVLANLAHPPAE
Sequence of PIM-1-KINASE (P11309 whole entry): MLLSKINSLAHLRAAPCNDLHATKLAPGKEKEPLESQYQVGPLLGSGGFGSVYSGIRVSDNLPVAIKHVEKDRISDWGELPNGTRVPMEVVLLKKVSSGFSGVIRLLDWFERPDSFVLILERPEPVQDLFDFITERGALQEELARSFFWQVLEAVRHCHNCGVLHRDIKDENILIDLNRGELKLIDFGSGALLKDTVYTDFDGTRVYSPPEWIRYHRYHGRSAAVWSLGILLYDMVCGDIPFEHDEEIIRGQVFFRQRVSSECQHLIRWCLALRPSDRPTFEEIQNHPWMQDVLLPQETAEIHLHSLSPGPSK

Consider `COc1ccc(-c2ccco2)cc1Nc1ncnc2[nH]nc(-c3ccco3)c12` [compound 2, 3-(furan-2-yl)-N-(5-(furan-2-yl)-2-methoxyphenyl)-1H-pyrazolo[3,4-d]pyrimidin-4-amine], for which the inhibition at 0.1 µM on SYK (compound at 100 nM) was -2.12%; on NEK2 (compound at 100 nM), 1.53%; at PIM-1-KINASE (compound at 100 nM) it was 4.08%; on SGK1 (compound at 100 nM), 14.4%; against PYK2 (compound at 100 nM), 3.81%; at IRAK4 (compound at 100 nM) it was 1.47%. The inhibition at 0.1 µM at PDGFR-ALPHA (compound at 100 nM) is 11.8%; on CDK2 (compound at 100 nM) it was 4.14%; on PRKD2 (compound at 100 nM) it was 5.46%; on PAK2 (compound at 100 nM), 0.085%. Moreover, the inhibition at 1 µM on SYK was -6.41%; at NEK2, 2.98%; at PIM-1-KINASE it was 8.71%; at SGK1, 53.4%; on PYK2, 20.2%; on IRAK4, 1.42%. The inhibition at 1 µM against PDGFR-ALPHA stood at 52.5%; on CDK2, 17.6%; against PRKD2, 26.6%; against PAK2, 1.07%.

As for `COc1ccc(-c2ccoc2)cc1Nc1ncnc2[nH]cc(-c3cc[nH]n3)c12` [compound 3, N-(5-(furan-3-yl)-2-methoxyphenyl)-5-(1H-pyrazol-3-yl)-7H-pyrrolo[2,3-d]pyrimidin-4-amine], the inhibition at 1 µM against SYK was 35%; on NEK2 it was -9%; against PIM-1-KINASE it was 7%; at SGK1, 31%; against PYK2 it was 41%; against IRAK4, 34%. The inhibition at 1 µM stood at 66% at PDGFR-ALPHA, 10% against CDK2, 28% at PRKD2 and 3% at PAK2.
